# Reference: ChEMBL document CHEMBL1134927, “A series of C-terminal amino alcohol dipeptide A beta inhibitors” (Bioorg Med Chem Lett, 2002)
# System: HEK293
# Test: Effective dose required to inhibit beta-amyloid formation in a human kidney cell line (HEK 293)
# Assay type: functional
# Conditions: read-out: ED50 (the source's name)
row,Structure (SMILES),EC50 [nM]
1,C[C@H](NC(=O)[C@@H](O)c1cc(F)cc(F)c1)C(=O)N[C@H](CO)CCCc1ccccc1,130
2,C[C@H](NC(=O)Cc1cc(F)cc(F)c1)C(=O)N[C@@H](c1ccccc1)[C@H](O)c1ccccc1,3500
3,CCCC[C@@H](CO)NC(=O)[C@H](C)NC(=O)Cc1cc(F)cc(F)c1,460
4,C[C@H](NC(=O)Cc1cc(F)cc(F)c1)C(=O)N[C@H](C)[C@@H](O)c1ccccc1,> 10000
5,C[C@H](NC(=O)Cc1cc(F)cc(F)c1)C(=O)NCCO,> 10000
6,COC(=O)C[C@@H](O)[C@H](Cc1ccccc1)NC(=O)[C@H](C)NC(=O)Cc1cc(F)cc(F)c1,> 10000
7,C[C@H](NC(=O)Cc1cc(F)cc(F)c1)C(=O)N[C@H](CO)CCCc1ccccc1,870
8,C[C@H](NC(=O)[C@@H](O)c1cc(F)cc(F)c1)C(=O)N[C@H](CO)CC1CCCCC1,200
9,C[C@H](NC(=O)Cc1cc(F)cc(F)c1)C(=O)N(C)[C@@H](C)[C@@H](O)c1ccccc1,> 10000
10,CSCC[C@@H](CO)NC(=O)[C@H](C)NC(=O)Cc1cc(F)cc(F)c1,490
11,C[C@H](NC(=O)Cc1cc(F)cc(F)c1)C(=O)N(C)[C@H](C)[C@H](O)c1ccccc1,> 10000
12,CCCC[C@H](NC(=O)[C@@H](C)NC(=O)Cc1cc(F)cc(F)c1)C(=O)OC,9400
13,CSCC[C@@H](CO)NC(=O)[C@H](C)NC(=O)[C@@H](O)c1cc(F)cc(F)c1,960
14,C[C@H](NC(=O)Cc1cc(F)cc(F)c1)C(=O)N[C@@H](C)[C@H](O)c1ccccc1,> 10000
15,C[C@H](NC(=O)Cc1cc(F)cc(F)c1)C(=O)N[C@H]1c2ccccc2C[C@H]1O,630
16,C[C@H](NC(=O)[C@@H](O)c1cc(F)cc(F)c1)C(=O)N[C@H](CO)CCc1ccccc1,270
17,C[C@H](NC(=O)Cc1cc(F)cc(F)c1)C(=O)N[C@H](CO)CC1CCCCC1,800
18,CCCC[C@H](CO)NC(=O)[C@H](C)NC(=O)[C@@H](O)c1cc(F)cc(F)c1,24500
19,CCCC[C@H](NC(=O)[C@H](C)NC(=O)Cc1cc(F)cc(F)c1)C(=O)OC,15
20,C[C@H](NC(=O)Cc1cc(F)cc(F)c1)C(=O)N[C@H](CO)Cc1ccccc1,2700
21,C[C@H](NC(=O)Cc1cc(F)cc(F)c1)C(=O)N[C@H](CO)c1ccccc1,180
22,"C[C@H](NC(=O)Cc1cc(F)cc(F)c1)C(=O)NC1c2ccccc2C[C@@H]1O (single isomer, unassigned)",> 10000
23,C#CC[C@@H](CO)NC(=O)[C@H](C)NC(=O)[C@@H](O)c1cc(F)cc(F)c1,2300
24,C#CC[C@@H](CO)NC(=O)[C@H](C)NC(=O)Cc1cc(F)cc(F)c1,10000
25,CCCC[C@H](CO)NC(=O)[C@H](C)NC(=O)Cc1cc(F)cc(F)c1,> 29000
26,C[C@H](NC(=O)Cc1cc(F)cc(F)c1)C(=O)N[C@H](c1ccccc1)[C@@H](O)c1ccccc1,> 10000
27,CCCC[C@@H](CO)NC(=O)[C@H](C)NC(=O)[C@@H](O)c1cc(F)cc(F)c1,600
28,C[C@H](NC(=O)Cc1cc(F)cc(F)c1)C(=O)N[C@@H](CO)c1ccccc1,> 10000
